# Laboratory results published in patent publication US8178570B2, “Tie-2 modulators and methods of use” (Exelixis, Inc., priority 2003, dated 2012).
# Molecular target: Tie-2 (Homo sapiens, UniProt Q02763)
# Test: Tie-2 tyrosine kinase activity: kinase-dependent ATP consumption (pEY substrate, luciferase/luciferin chemiluminescence) or 33P-ATP incorporation into substrate
# Format: biochemical
# Settings: Tie-2 (human enzyme) inhibition, Table 2, class symbols A-D
# Method: One measure of inhibition is Ki. […] The Ki for a compound is determined from the IC50 based on three assumptions. First, only one compound molecule binds to the enzyme and there is no cooperativity. […] Third, the enzymatic rate of the enzyme-inhibitor complex is zero. The rate (i.e., compound concentration) data are fitted to the equation:
# [formula] where V is the observed rate, Vmax, is the rate of the free enzyme, I0 is the inhibitor concentration, E0 is the enzyme concentration, and Kd is the dissociation constant of the enzyme-inhibitor complex.
# Tyrosine kinase activity is determined by 1) measurement of kinase-dependent ATP consumption by in the presence of a generic substrate such as polyglutamine, tyrosine (pEY), by luciferase/luciferin-mediated chemiluminescence or; 2) incorporation of radioactive phosphate derived from ^33P-ATP into a generic substrate which has been absorbed onto the well surface of polystyrene microtiter plates. Phosphorylated substrate products are quantified by scintillation spectrometry.
# Inhibition is indicated as IC50 with following key: A=IC50 less than 50 nM, B=IC50 greater than 50 nM, but less than or equal to 1000 nM, C=IC50 greater than 1000 nM, but less than 10,000 nM, and D=IC50 10,000 nM or greater. The abbreviation for human enzyme, Tie-2, is defined as tyrosine kinase with immunoglobulin and EGF repeats.
# Tie-2, sequence (Q02763 23-1124): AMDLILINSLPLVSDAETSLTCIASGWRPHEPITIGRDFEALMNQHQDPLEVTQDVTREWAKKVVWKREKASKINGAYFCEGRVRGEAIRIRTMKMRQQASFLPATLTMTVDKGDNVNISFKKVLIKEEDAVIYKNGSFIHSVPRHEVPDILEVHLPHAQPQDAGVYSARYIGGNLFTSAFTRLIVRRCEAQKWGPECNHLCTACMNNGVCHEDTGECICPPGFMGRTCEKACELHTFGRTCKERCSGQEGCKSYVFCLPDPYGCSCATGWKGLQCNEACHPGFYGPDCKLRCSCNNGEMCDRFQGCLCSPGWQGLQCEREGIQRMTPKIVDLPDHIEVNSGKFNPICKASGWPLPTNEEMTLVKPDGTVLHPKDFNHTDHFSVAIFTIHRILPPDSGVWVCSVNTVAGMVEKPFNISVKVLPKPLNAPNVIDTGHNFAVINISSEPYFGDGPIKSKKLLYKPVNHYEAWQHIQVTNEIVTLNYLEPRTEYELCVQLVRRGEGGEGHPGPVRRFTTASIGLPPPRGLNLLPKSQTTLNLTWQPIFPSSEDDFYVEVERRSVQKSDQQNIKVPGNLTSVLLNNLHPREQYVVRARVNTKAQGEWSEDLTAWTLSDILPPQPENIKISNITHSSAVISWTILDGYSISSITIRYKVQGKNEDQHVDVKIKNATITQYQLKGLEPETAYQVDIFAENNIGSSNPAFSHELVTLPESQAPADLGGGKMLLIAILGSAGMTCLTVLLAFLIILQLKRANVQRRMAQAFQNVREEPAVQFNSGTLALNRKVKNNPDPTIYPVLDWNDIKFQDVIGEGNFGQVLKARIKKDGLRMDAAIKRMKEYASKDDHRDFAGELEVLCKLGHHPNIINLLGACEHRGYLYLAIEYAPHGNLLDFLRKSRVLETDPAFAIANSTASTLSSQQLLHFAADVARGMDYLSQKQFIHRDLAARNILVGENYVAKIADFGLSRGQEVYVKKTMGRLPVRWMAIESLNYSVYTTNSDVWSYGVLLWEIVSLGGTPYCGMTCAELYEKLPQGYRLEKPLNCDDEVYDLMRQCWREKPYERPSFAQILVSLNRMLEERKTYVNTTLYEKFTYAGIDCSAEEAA
row,IC50,SMILES
1,≥ 10 µM,"COc1ccc(-c2nc(-c3ccccc3)nn2CC(=O)NC2CCCC2)cc1Cl [Entry 33, 2-{5-[3-chloro-4-(methyloxy)phenyl]-3-phenyl-1H-1,2,4-triazol-1-yl}-N-cyclopentylacetamide]"
2,≥ 10 µM,"COc1ccc(-c2nc(-c3ccncc3)nn2CCN(C(=O)Nc2cc(Cl)ccc2Cl)C2CCCC2)cc1Cl [Entry 133, N-(2-{5-[3-chloro-4-(methyloxy)phenyl]-3-pyridin-4-yl-1H-1,2,4-triazol-1-yl}ethyl)-N-cyclopentyl-N′-(2,5-dichlorophenyl)urea]"
3,≥ 10 µM,"COc1ccc(-c2nc(-c3ccncc3)n(CCN(C(=O)c3ccccc3)C3CCCC3)n2)cc1Cl [Entry 27, N-(2-{3-[3-chloro-4-(methyloxy)phenyl]-5-pyridin-4-yl-1H-1,2,4-triazol-1-yl}ethyl)-N-cyclopentylbenzamide]"
4,≥ 10 µM,"COc1ccc(-c2nc(-c3ccncc3)nn2CCN(C(=O)NCCc2ccccc2)C2CCCC2)cc1Cl [Entry 113, N-(2-{5-[3-chloro-4-(methyloxy)phenyl]-3-pyridin-4-yl-1H-1,2,4-triazol-1-yl}ethyl)-N-cyclopentyl-N′-(2-phenylethyl)urea]"
5,≥ 10 µM,"COc1ccc(-c2nc(-c3ccncc3)nn2CCN(C(=O)Nc2ccc(F)cc2)C2CCCC2)cc1Cl [Entry 90, N-(2-{5-[3-chloro-4-(methyloxy)phenyl]-3-pyridin-4-yl-1H-1,2,4-triazol-1-yl}ethyl)-N-cyclopentyl-N′-(4-fluorophenyl)urea]"
6,≥ 10 µM,"COc1ccc(-c2nc(-c3ccncc3)nn2CCN(C(=O)Nc2cccc(Cl)c2Cl)C2CCCC2)cc1Cl [Entry 119, N-(2-{5-[3-chloro-4-(methyloxy)phenyl]-3-pyridin-4-yl-1H-1,2,4-triazol-1-yl}ethyl)-N-cyclopentyl-N′-(2,3-dichlorophenyl)urea]"
7,0.05 to 1 µM,"COc1ccc(-c2nc(-c3ccncc3)n(CCN(C(=O)Cc3cccc4ccccc34)C3CCCC3)n2)cc1OC [Entry 42, N-(2-{3-[3,4-bis(methyloxy)phenyl]-5-pyridin-4-yl-1H-1,2,4-triazol-1-yl}ethyl)-N-cyclopentyl-2-naphthalen-1-ylacetamide]"
8,≥ 10 µM,"O=C(Cc1cccc2ccccc12)N(CCn1nc(-c2ccc(C(F)(F)F)cc2)nc1-c1ccncc1)C1CCCC1 [Entry 77, N-cyclopentyl-2-naphthalen-1-yl-N-(2-{5-pyridin-4-yl-3-[4-(trifluoromethyl)phenyl]-1H-1,2,4-triazol-1-yl}ethyl)acetamide]"
9,< 0.05 µM,"COc1ccc(-c2nc(-c3ccncc3)nn2CCN(C(=O)Nc2cccc3ccccc23)C2CCCC2)cc1Cl [Entry 29, N-(2-{5-[3-chloro-4-(methyloxy)phenyl]-3-pyridin-4-yl-1H-1,2,4-triazol-1-yl}ethyl)-N-cyclopentyl-N′-naphthalen-1-ylurea]"
10,0.05 to 1 µM,"COc1ccc(-c2nc(-c3ccncc3)n(CCN(C(=O)Cc3cccc4ccccc34)C3CCCCC3)n2)cc1Cl [Entry 37, N-(2-{3-[3-chloro-4-(methyloxy)phenyl]-5-pyridin-4-yl-1H-1,2,4-triazol-1-yl}ethyl)-N-cyclohexyl-2-naphthalen-1-ylacetamide]"
11,1 to 10 µM,"COc1ccc(-c2nc(-c3ccncc3)nn2CCN(C(=O)Nc2cc(F)ccc2C)C2CCCC2)cc1Cl [Entry 158, N-(2-{5-[3-chloro-4-(methyloxy)phenyl]-3-pyridin-4-yl-1H-1,2,4-triazol-1-yl}ethyl)-N-cyclopentyl-N′-(5-fluoro-2-methylphenyl)urea]"
12,≥ 10 µM,"COc1ccc(-c2nc(-c3ccncc3)nn2CCN(C(=O)NC(C)(C)C)C2CCCC2)cc1Cl [Entry 107, N-(2-{5-[3-chloro-4-(methyloxy)phenyl]-3-pyridin-4-yl-1H-1,2,4-triazol-1-yl}ethyl)-N-cyclopentyl-N′-(1,1-dimethylethyl)urea]"
13,≥ 10 µM,"CCCCCCNC(=O)N(CCn1nc(-c2ccncc2)nc1-c1ccc(OC)c(Cl)c1)C1CCCC1 [Entry 89, N-(2-{5-[3-chloro-4-(methyloxy)phenyl]-3-pyridin-4-yl-1H-1,2,4-triazol-1-yl}ethyl)-N-cyclopentyl-N′-hexylurea]"
14,< 0.05 µM,"COc1ccc(-c2nc(-c3ccncc3)nn2CCN(C(=O)Cc2cccc3ccccc23)C2CCCC2)cc1 [Entry 39, N-cyclopentyl-N-(2-{5-[4-(methyloxy)phenyl]-3-pyridin-4-yl-1H-1,2,4-triazol-1-yl}ethyl)-2-naphthalen-1-ylacetamide]"
15,≥ 10 µM,"COc1ccc(-c2nc(-c3ccncc3)nn2CCN(C(=O)NC(C)C)C2CCCC2)cc1Cl [Entry 108, N-(2-{5-[3-chloro-4-(methyloxy)phenyl]-3-pyridin-4-yl-1H-1,2,4-triazol-1-yl}ethyl)-N-cyclopentyl-N′-(1-methylethyl)urea]"
16,1 to 10 µM,"COc1ccc(-c2nc(-c3ccncc3)nn2CCN(C(=O)Nc2ccc(F)c(F)c2)C2CCCC2)cc1Cl [Entry 159, N-(2-{5-[3-chloro-4-(methyloxy)phenyl]-3-pyridin-4-yl-1H-1,2,4-triazol-1-yl}ethyl)-N-cyclopentyl-N′-(3,4-difluorophenyl)urea]"
17,< 0.05 µM,"O=C(Cc1cccc2ccccc12)N(CCn1nc(-c2ccncc2)nc1-c1ccc(Cl)cc1Cl)C1CCCC1 [Entry 74, N-cyclopentyl-N-{2-[5-(2,4-dichlorophenyl)-3-pyridin-4-yl-1H-1,2,4-triazol-1-yl]ethyl}-2-naphthalen-1-ylacetamide]"
18,≥ 10 µM,"COc1ccc(-c2nc(-c3ccncc3)nn2CCN(C(=O)Nc2ccc(C(C)=O)cc2)C2CCCC2)cc1Cl [Entry 99, N′-(4-acetylphenyl)-N-(2-{5-[3-chloro-4-(methyloxy)phenyl]-3-pyridin-4-yl-1H-1,2,4-triazol-1-yl}ethyl)-N-cyclopentylurea]"
19,< 0.05 µM,"O=C(Cc1cccc2ccccc12)N(CCn1nc(-c2ccncc2)nc1-c1ccccc1Cl)C1CCCC1 [Entry 61, N-{2-[5-(2-chlorophenyl)-3-pyridin-4-yl-1H-1,2,4-triazol-1-yl]ethyl}-N-cyclopentyl-2-naphthalen-1-ylacetamide]"
20,≥ 10 µM,"COc1ccc(-c2nc(-c3ccncc3)nn2CCN(C(=O)Nc2cc(Cl)cc(Cl)c2)C2CCCC2)cc1Cl [Entry 141, N-(2-{5-[3-chloro-4-(methyloxy)phenyl]-3-pyridin-4-yl-1H-1,2,4-triazol-1-yl}ethyl)-N-cyclopentyl-N′-(3,5-dichlorophenyl)urea]"
21,1 to 10 µM,"COc1ccc(-c2nc(-c3ccncc3)nn2CCN(C(=O)N[C@@H](C)c2ccccc2)C2CCCC2)cc1Cl [Entry 125, N-(2-{5-[3-chloro-4-(methyloxy)phenyl]-3-pyridin-4-yl-1H-1,2,4-triazol-1-yl}ethyl)-N-cyclopentyl-N′-[(1S)-1-phenylethyl]urea]"
22,1 to 10 µM,"COc1ccc(-c2nc(-c3ccncc3)nn2CCNC(=O)Cc2cccc3ccccc23)cc1Cl [Entry 34, N-(2-{5-[3-chloro-4-(methyloxy)phenyl]-3-pyridin-4-yl-1H-1,2,4-triazol-1-yl}ethyl)-2-naphthalen-1-ylacetamide]"
23,≥ 10 µM,"COc1ccc(-c2nc(-c3ccncc3)nn2CCN(C(=O)Nc2c(C)cccc2Cl)C2CCCC2)cc1Cl [Entry 151, N-(2-{5-[3-chloro-4-(methyloxy)phenyl]-3-pyridin-4-yl-1H-1,2,4-triazol-1-yl}ethyl)-N′-(2-chloro-6-methylphenyl)-N-cyclopentylurea]"
24,≥ 10 µM,"COc1ccc(-c2nc(-c3ccncc3)nn2CCN(C(=O)Nc2ccc(C)cc2C)C2CCCC2)cc1Cl [Entry 128, N-(2-{5-[3-chloro-4-(methyloxy)phenyl]-3-pyridin-4-yl-1H-1,2,4-triazol-1-yl}ethyl)-N-cyclopentyl-N′-(2,4-dimethylphenyl)urea]"
25,< 0.05 µM,"COc1cccc(-c2nc(-c3ccncc3)nn2CCN(C(=O)Cc2cccc3ccccc23)C2CCCC2)c1 [Entry 22, N-cyclopentyl-N-(2-{5-[3-(methyloxy)phenyl]-3-pyridin-4-yl-1H-1,2,4-triazol-1-yl}ethyl)-2-naphthalen-1-ylacetamide]"
26,≥ 10 µM,"COc1ccc(-c2nc(-c3ccncc3)nn2CCN(C(=O)Nc2ccccc2C(C)C)C2CCCC2)cc1Cl [Entry 157, N-(2-{5-[3-chloro-4-(methyloxy)phenyl]-3-pyridin-4-yl-1H-1,2,4-triazol-1-yl}ethyl)-N-cyclopentyl-N′-[2-(1-methylethyl)phenyl]urea]"
27,≥ 10 µM,"COc1ccc(-c2nc(-c3ccncc3)nn2CCN(C(=O)c2ccc3ccccc3c2)C2CCCC2)cc1Cl [Entry 21, N-(2-{5-[3-chloro-4-(methyloxy)phenyl]-3-pyridin-4-yl-1H-1,2,4-triazol-1-yl}ethyl)-N-cyclopentylnaphthalene-2-carboxamide]"
28,≥ 10 µM,"COc1ccc(-c2nc(-c3cccnc3)nn2CCN(C(=O)Cc2cccc3ccccc23)C2CCCC2)cc1Cl [Entry 13, N-(2-{5-[3-chloro-4-(methyloxy)phenyl]-3-pyridin-3-yl-1H-1,2,4-triazol-1-yl}ethyl)-N-cyclopentyl-2-naphthalen-1-ylacetamide]"

row,SMILES,IC50
1,"Cc1nc(-c2ccncc2)nn1CCN(CCN1CCCC1)C(=O)Cc1cccc2ccccc12 [Entry 169, N-[2-(5-methyl-3-pyridin-4-yl-1H-1,2,4-triazol-1-yl)ethyl]-2-naphthalen-1-yl-N-(2-pyrrolidin-1-ylethyl)acetamide]",≥ 10 µM
